Results on 14 compounds are retold here after patent US5219872A, “Compounds of 1,2,5,6-tetrahydropyridin-3-carboxaldehyde oxime which are useful as cholinergic agents” (Roussel UCLAF, priority 1986, dated 1993).

The test system of series [1] is isolated ileum from guinea-pigs. Put plainly: Isolated guinea-pig ileum: contracting (agonist) activity. Particulars: Cavia porcellus, read-out: pD2 (negative logarithm of the dose which produces 50% of the maximum effect) (converted).
Procedure: Sections of ileum were removed from guinea-pigs killed by decapitation. […] The contracting effect of the compounds was detected, with an isometric transducer connected to a recorder. The products under test were added at scalar concentrations between 1×10^-3 and 1×10^-8 moles.
The agonist activity was expressed in pD2 (negative logarithm of the dose which produces 50% of the maximum effect.)
A further series in a line: in vivo. Particulars: rat, oral route, male rats CD1, fasting 16 hours, mortality in seven days. How it is done:
Male rats (CD1 Charles Rivers) were used, weighing […], fasting for 16 hours. […] The mortality was checked in the seven days following the treatment.

The nature of the next series: Diarrhoea activity. Particulars: rat, in vivo, po.
Series [2] is described as follows: Hypothermic activity (central cholinomimetic activity). The series is classed as in vivo. Particulars: Mus musculus, read-out: Effective dose (-1° C.).
Procedure: (§1) Male mice (CD1 Charles Rivers) were used, weighing 25-30 g, fasting for 6 hours. The body temperature was noted by means of a thermo-couple, inserted in the rectum for about 1.5 cm and connected to an electric temperature indicator.
(§2) The degree of hypothermia was evaluated as the difference between the treated and the control animals, and the dose was determined which was necessary to reduce the body temperature by 1° C.
Series [3] in a line: Duration of action: variations of the body temperature. The series is classed as in vivo, mouse. The settings on record: dose mg/kg: Example 3 0,15, 7 1,25.
Procedure: as §1, §2
The duration of action of the products was evaluated using doses of equal ability to cause a reduction of body temperature of 1°-1,5° C.
In series [4] the test system is isolated ileum from guinea-pigs (response induced with acetylcholine). As to the kind of experiment: Isolated guinea-pig ileum: antagonist activity against acetylcholine. The settings on record: Cavia porcellus; antagonist activity vs acetylcholine; Tyrode's solution 37° C.; products added between 1×10^-3 and 1×10^-8 moles; read-out: ED50 (dose inhibiting 50% of the maximum response induced with acetylcholine). How it is done: ILEUM FROM GUINEA-PIGS Sections of ileum were removed from guinea-pigs killed by decapitation. The isolated ileum was suspended in a bath containing 10 ml of Tyrode's solution thermo-regulated at 37° C. and aerated with a mixture of O2 (95%) and CO2 (5%). The contracting effect of the compounds was detected, with an isometric transducer connected to a recorder. The products under test were added at scalar concentrations between 1×10^-3 and 1×10^-8 moles. The products endowed with contracting activity were checked against atropine or hexamethonium to establish whether the activity was of muscarine type or nicotine type. The possible antagonist activity of the products was tested against acetylcholine.

The conditions of series [5]: cited from earlier work.
For series [6], the system named is patients having a memory defect. The settings on record: intravenous route; Sitaram 1978, Christie 1981; cited from earlier work.
Where [7] appears, read: agonist activity, Tyrode's solution 37° C.
The mark [8] stands for this setting: sc, sub-cutaneous, dose to reduce the body temperature by 1° C.
[9] abbreviates: oral, dose to reduce the body temperature by 1° C.
The mark [10] stands for this setting: os, 0 minutes, 8 0,5, 10 0,5, arecoline HBr 200.
Setting [11] is: os, 30 minutes, 8 0,5, 10 0,5, arecoline HBr 200, ** p < 0,01 vs controls (all values).
The mark [12] stands for this setting: os, 60 minutes, 8 0,5, 10 0,5, arecoline HBr 200, ** p < 0,01 vs controls (all values).
The mark [13] stands for this setting: os, 120 minutes, 8 0,5, 10 0,5, arecoline HBr 200, ** p < 0,01 for Example 7 only.
Where [14] appears, read: sc, 30 minutes, 8 1, 10 0,75, arecoline HBr 3,5, ** p < 0,01 vs controls (all values).
The mark [15] stands for this setting: sc, 60 minutes, 8 1, 10 0,75, arecoline HBr 3,5, ** p < 0,01 for Examples 3, 7, 8, 10.
[16] abbreviates: sc, 120 minutes, 8 1, 10 0,75, arecoline HBr 3,5, ** p < 0,01 for Example 7 only.
Where [17] appears, read: sc, 180 minutes, 8 1, 10 0,75, arecoline HBr 3,5.
The mark [18] stands for this setting: os, 180 minutes, 8 0,5, 10 0,5, arecoline HBr 200.

Where a name gives a salt, the structure may show the parent alone. Read-outs that look alike come from different tables or passages of the source.

Procedure for Diarrhoea activity: Male rats (CD1 Charles Rivers) were used, weighing 25-30 g, fasting for 6 hours. The compounds were administered by oral route, by means of an oesophagic probe, dissolved at 0.5% in methocel. The controls received only the vehicle (20 ml/Kg).
1: faeces moderately soft with or without formation of a halo of humidity
2: faeces moderately soft with formation of a well defined circle of humidity,
3: faeces soft, with formation of a large circle of humidity,
4: faeces without consistency with formation of a very large circle of humidity.

Take `CON=CC1=CCCNC1.Cl` [Example 3, 1,2,5,6-tetrahydropyridin-3-carboxaldehyde-O-methyloxime Hydrochloride]: in series [1] (setting [7]), the EC50 was 0.263 µM. The compound also displayed a median lethal dose (LD50) at 168 h in the series “in vivo” of 75 mg/kg. In the series “Diarrhoea activity”, this compound had an ED50 of 0.15 mg/kg. The ED (-1 C) in series [2] (setting [8]) came out at 0.12 mg/kg; in series [2] (setting [9]) it was 0.11 mg/kg. Also, the “variation of the body temperature” value is “+0.1 °C” in series [3] (setting [10]); -1,5 °C in series [3] (setting [11]); -0,8 °C in series [3] (setting [12]); -0,2 °C in series [3] (setting [13]); -1,2 °C in series [3] (setting [14]); -0,8 °C in series [3] (setting [15]). Moreover, the “variation of the body temperature” value is -0,2 °C in series [3] (setting [16]) and -0,1 °C in series [3] (setting [17]).
Take `C#CCON=CC1=CCCN(C)C1` [Example 12, 1-methyl-1,2,5,6-tetrahydropyridin-3-carboxaldehyde-O-propargyloxime]: the EC50 in series [1] (setting [7]) is 0.479 µM. In the series “in vivo”, this compound came in with an LD50 at 168 h of 60 mg/kg. Besides, the 50% effect level in “Diarrhoea activity” (ED50) was put at a dose of 5.5 mg/kg. The ED (-1 C) in series [2] (setting [8]) was found to be 0.63 mg/kg; in series [2] (setting [9]), 2 mg/kg.
In the case of `CCON=CC1=CCCN(C)C1.Cl` [Example 2, 1-methyl-1,2,5,6-tetrahydropyridin-3-carboxaldehyde-O-ethyloxime hydrochloride], the EC50 in series [1] (setting [7]) is above 1000 µM. The 50% lethal dose (LD50) at 168 h in the series “in vivo” amounted to 250 mg/kg. Also, in the series “Diarrhoea activity”, the ED50 worked out at 50 mg/kg. The ED (-1 C) came out at 11 mg/kg in series [2] (setting [8]) and 13 mg/kg in series [2] (setting [9]). The IC50 in series [4] was 180 µM.
As for `COC(=O)C1=CCCN(C)C1` [Arecoline HBr, reference compound], the 50% effective dose (ED50) in “Diarrhoea activity” turned out to be 35 mg/kg. Besides, the ED (-1 C) in series [2] (po) was 194 mg/kg; in series [2] (sc) it was 3 mg/kg. Also, the “variation of the body temperature” value in series [3] (setting [10]) is “+0,1 °C”; in series [3] (setting [11]), -1,1 °C; in series [3] (setting [12]), -1,0 °C; in series [3] (setting [13]), -0,2 °C; in series [3] (setting [18]), -0,1 °C; in series [3] (sc, 0 minutes, 8 1, 10 0,75, arecoline HBr 3,5) it was -0,1 °C. Besides, the “variation of the body temperature” value in series [3] (setting [14]) was -1,5 °C; in series [3] (setting [15]) it was -0,1 °C; in series [3] (setting [16]) it was “+0,2 °C”; in series [3] (setting [17]) it was “+0,2 °C”.
Consider `CC(C)ON=CC1=CCCN(C)C1` [Example 4, O-isopropyl-N-methyl-1,2,5,6-tetrahydropyridin-3-carboxaldehyde oxime hydrochloride], for which the EC50 in series [1] (setting [7]) is above 1000 µM. In addition, in “in vivo”, the median lethal dose (LD50) at 168 h came out at 350 mg/kg. The ED50 in “Diarrhoea activity” was above 100 mg/kg. Further, in series [2] (setting [9]), the ED (-1 C) came to 40 mg/kg. The IC50 in series [4] is 11 µM.
`CN(C)CCON=CC1=CCCN(C)C1` [Example 6, 3-[2-(N,N-dimethylaminoethoxyimino)-methyl]-1-methyl-1,2,5,6-tetrahydropyridine]: the EC50 in series [1] (setting [7]) is 148 µM. This compound registered an LD50 at 168 h in “in vivo” of 750 mg/kg. In the series “Diarrhoea activity”, this compound came in with an ED50 above 100 mg/kg. Moreover, in series [2] (setting [9]), the ED (-1 C) came to 135 mg/kg.
For the compound `CCN1CCC=C(C=NOC)C1.Cl` [Example 7, 1-ethyl-1,2,5,6-tetrahydro-pyridin-3-carboxaldehyde-O-methyloxime hydrochloride], the EC50 in series [1] (setting [7]) is above 1000 µM. For the same compound, in “Diarrhoea activity”, it took a dose of 10 mg/kg to reach the 50% effect level (ED50). Moreover, the ED (-1 C) was 1.16 mg/kg in series [2] (setting [8]) and 0.97 mg/kg in series [2] (setting [9]). In addition, the “variation of the body temperature” value is -1,1 °C in series [3] (setting [11]); -1,1 °C in series [3] (setting [12]); -0,6 °C in series [3] (setting [13]); -0,2 °C in series [3] (setting [18]); -0,5 °C in series [3] (setting [14]); -1,0 °C in series [3] (setting [15]). The figures for the “variation of the body temperature” value in series [3] (setting [16]) and in series [3] (setting [17]) were -0,6 °C and -0,1 °C, respectively. The IC50 in series [4] is 200 µM.
Turning to `COC(=O)C1=CCCN(C)C1` [Arecoline], in series [1], the EC50 is 0.331 µM. Further, the duration of action entry in series [5] (in vivo) is given as “short duration of action”. The “activity by oral route” value in series [5] (oral route) was “very weak activity”. Also, the “effect on patients having a memory defect” value in series [6] is on record as “positive effect”.
For `CCCCCN1CCC=C(C=NOC)C1` [Example 11, 1-pentyl-1,2,5,6-tetrahydropyridin-3-carboxaldehyde-O-methyloxime], the EC50 in series [1] (setting [7]) is above 1000 µM. This compound displayed an LD50 at 168 h in “in vivo” of 175 mg/kg. The compound further had a 50% effective dose (ED50) in the series “Diarrhoea activity” of 5 mg/kg. Also, the ED (-1 C) in series [2] (setting [8]) was 4 mg/kg; in series [2] (setting [9]), 3 mg/kg. The IC50 in series [4] worked out at 160 µM.
For the compound `C=CCN1CCC=C(C=NOC)C1` [Example 10, 1-allyl-1,2,5,6-tetrahydropyridin-3-carboxaldehyde-O-methyloxime], in series [1] (setting [7]), the EC50 is 15.8 µM. The compound further had a 50% lethal dose (LD50) at 168 h in “in vivo” of 175 mg/kg. The compound further registered a median effective dose (ED50) in the series “Diarrhoea activity” of 1.2 mg/kg. Moreover, the ED (-1 C) in series [2] (setting [8]) turned out to be 0.86 mg/kg; in series [2] (setting [9]), 0.34 mg/kg. The “variation of the body temperature” value in series [3] (setting [10]) was -0,1 °C; in series [3] (setting [11]), -1,5 °C; in series [3] (setting [12]), -0,7 °C; in series [3] (setting [13]) it was -0,1 °C; in series [3] (setting [18]), “+0,2 °C”; in series [3] (setting [14]), -0,8 °C. For the same compound, the “variation of the body temperature” value in series [3] (setting [15]) is -1,0 °C; in series [3] (setting [16]), -0,1 °C; in series [3] (setting [17]), “+0,1 °C”.
Turning to `CC(=O)ON=CC1=CCCN(C)C1` [Example 5, 1-methyl-1,2,5,6-tetrahydropyridin-3-carboxaldehyde-0-acetyl-oxime], in series [1] (setting [7]), the EC50 was 51.3 µM. This compound also registered a median lethal dose (LD50) at 168 h in “in vivo” of 500 mg/kg. In “Diarrhoea activity”, this compound showed an ED50 above 100 mg/kg. The ED (-1 C) in series [2] (setting [9]) was 39 mg/kg.
Consider `CCCN1CCC=C(C=NOC)C1` [Example 8], for which, in series [1] (setting [7]), the EC50 is 25.1 µM. In the series “in vivo”, this compound had an LD50 at 168 h of 100 mg/kg. For the same compound, the 50% effective dose (ED50) in the series “Diarrhoea activity” was found to be 1.7 mg/kg. Also, the ED (-1 C) worked out at 0.83 mg/kg in series [2] (setting [8]) and 0.34 mg/kg in series [2] (setting [9]). Also, the “variation of the body temperature” value is -1,5 °C in series [3] (setting [11]); -1,3 °C in series [3] (setting [12]); -0,4 °C in series [3] (setting [13]); -0,7 °C in series [3] (setting [14]); -1,2 °C in series [3] (setting [15]); -0,2 °C in series [3] (setting [16]). In series [3] (setting [17]), the “variation of the body temperature” value is -0,1 °C.
For the compound `CON=CC1=CCCN(C)C1` [Example 1, 1-methyl-1,2,5,6-tetrahydropyridin-3-carboxyaldehyde-O-methyloxime hydrochloride], the EC50 in series [1] (setting [7]) is 0.525 µM. Moreover, in the series “Diarrhoea activity”, the 50% effect level (ED50) was put at a dose of 0.6 mg/kg. For the same compound, the ED (-1 C) in series [2] (setting [8]) came to 0.14 mg/kg; in series [2] (setting [9]) it was 0.46 mg/kg.
Regarding `CCCCN1CCC=C(C=NOC)C1` [Example 9, 1-butyl-1,2,5,6-tetrahydropyridin-3-carboxaldehyde-O-methyloxime], the EC50 in series [1] (setting [7]) was above 1000 µM. In the series “in vivo”, this compound gave an LD50 at 168 h of 30 mg/kg. Besides, the ED50 in “Diarrhoea activity” stood at 3.5 mg/kg. For the same compound, the ED (-1 C) in series [2] (setting [8]) was found to be 0.85 mg/kg; in series [2] (setting [9]) it was 0.79 mg/kg. Moreover, the IC50 in series [4] worked out at 230 µM.
